Data set [1] concerns the target zebrafish Mate6 (Danio rerio, UniProt A1L2E7). As to the kind of experiment: DAPI inhibition assay, Mate6. The conditions noted are these: for interaction strength: class by IC50 of DAPI uptake inhibition; for interaction with DAPI uptake (in words): co-incubation with modulator (50 μM–2 mM), Fig. 5. Type of data set: cell-based. The method, then: (§1) HEK293T cells were transiently transfected as described previously[31] using the PEI (polyethyleneimine) reagent in 48-well plates. Cells were in parallel transfected with pcDNA3.1/His/LacZ plasmid and transfection efficiency was evaluated 24 h after transfection with the LacZ staining protocol.
(§2) HEK293T cells overexpressing respective single zebrafish Mate transporter were used for further experiments. […] DAPI fluorescence was measured at 360 and 460 nm […], respectively. The uptake into vector-transfected HEK293T cells (mock cells) was subtracted to obtain transporter-specific uptake.
(§3) Inhibition assays using DAPI as a fluorescent substrate were performed in the same transport medium. […] Compounds tested for interaction were checked using at least four concentrations but only a representative concentration (with the highest response or the largest concentration in solubility range) is shown.
(§4) For the purpose of IC50 calculations, data were fitted to the sigmoidal four-parameter dose-response model (variable slope),

The target in data set [2] is zebrafish Mate8 (Danio rerio, UniProt A0A8M6YZ09). Description: DAPI inhibition assay, Mate8. Type of data set: cell-based. Particulars: for interaction strength: class by IC50 of DAPI uptake inhibition; for interaction with DAPI uptake (in words): co-incubation with modulator (50 μM–2 mM), Fig. 5. How it is done: as §1, §2, §3, §4
Chain of zebrafish Mate8 (A0A8M6YZ09 entry or part of it): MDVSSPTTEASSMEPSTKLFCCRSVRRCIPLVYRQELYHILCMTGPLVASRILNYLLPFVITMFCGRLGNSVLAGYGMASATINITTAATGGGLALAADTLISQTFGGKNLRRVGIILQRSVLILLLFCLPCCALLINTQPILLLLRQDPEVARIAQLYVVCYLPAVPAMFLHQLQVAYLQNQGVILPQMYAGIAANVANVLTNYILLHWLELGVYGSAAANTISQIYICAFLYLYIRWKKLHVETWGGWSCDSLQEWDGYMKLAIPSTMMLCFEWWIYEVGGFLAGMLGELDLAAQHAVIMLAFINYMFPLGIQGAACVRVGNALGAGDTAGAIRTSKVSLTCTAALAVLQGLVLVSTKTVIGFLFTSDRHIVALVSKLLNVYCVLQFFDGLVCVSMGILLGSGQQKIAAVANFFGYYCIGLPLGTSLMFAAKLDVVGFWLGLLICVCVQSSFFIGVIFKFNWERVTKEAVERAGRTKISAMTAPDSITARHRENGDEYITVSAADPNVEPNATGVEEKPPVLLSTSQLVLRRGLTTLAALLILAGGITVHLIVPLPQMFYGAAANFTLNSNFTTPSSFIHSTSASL
For data set [3], the target named is zebrafish Mate4 (Danio rerio, UniProt U3Q0C3). As to the kind of experiment: DAPI inhibition assay, Mate4. Type of data set: cell-based. The conditions noted are these: for interaction with DAPI uptake (in words): co-incubation with modulator (50 μM–2 mM), Fig. 5. The method, then:
as §1, §2, §3, §4

For data set [4], the target named is zebrafish Mate7 (Danio rerio, UniProt U3PTD6). As to the kind of experiment: DAPI inhibition assay, Mate7. Type of data set: cell-based. Particulars: for interaction strength: class by IC50 of DAPI uptake inhibition; for interaction with DAPI uptake (in words): co-incubation with modulator (50 μM–2 mM), Fig. 5. The method, then: as §1, §2, §3, §4
Chain of zebrafish Mate7 (U3PTD6 entry or part of it): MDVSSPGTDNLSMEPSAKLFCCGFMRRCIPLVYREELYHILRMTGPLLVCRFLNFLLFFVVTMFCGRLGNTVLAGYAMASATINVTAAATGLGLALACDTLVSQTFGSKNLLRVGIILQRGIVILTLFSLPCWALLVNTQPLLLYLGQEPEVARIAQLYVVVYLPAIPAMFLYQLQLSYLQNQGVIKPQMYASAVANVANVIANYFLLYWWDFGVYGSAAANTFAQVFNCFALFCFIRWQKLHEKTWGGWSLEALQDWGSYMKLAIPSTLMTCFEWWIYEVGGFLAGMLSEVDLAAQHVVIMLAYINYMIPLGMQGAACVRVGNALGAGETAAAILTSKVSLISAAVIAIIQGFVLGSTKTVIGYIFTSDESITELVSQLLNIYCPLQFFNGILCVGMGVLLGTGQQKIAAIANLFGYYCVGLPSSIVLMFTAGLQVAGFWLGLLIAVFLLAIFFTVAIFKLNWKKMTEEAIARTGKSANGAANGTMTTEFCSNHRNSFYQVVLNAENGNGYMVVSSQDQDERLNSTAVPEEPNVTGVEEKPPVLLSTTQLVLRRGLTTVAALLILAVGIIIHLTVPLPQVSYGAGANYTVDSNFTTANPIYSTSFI
Data set [5] has as its target T1, zebrafish Mate3 (Danio rerio, UniProt A1L1P9).
T1 sequence (A1L1P9 1-590): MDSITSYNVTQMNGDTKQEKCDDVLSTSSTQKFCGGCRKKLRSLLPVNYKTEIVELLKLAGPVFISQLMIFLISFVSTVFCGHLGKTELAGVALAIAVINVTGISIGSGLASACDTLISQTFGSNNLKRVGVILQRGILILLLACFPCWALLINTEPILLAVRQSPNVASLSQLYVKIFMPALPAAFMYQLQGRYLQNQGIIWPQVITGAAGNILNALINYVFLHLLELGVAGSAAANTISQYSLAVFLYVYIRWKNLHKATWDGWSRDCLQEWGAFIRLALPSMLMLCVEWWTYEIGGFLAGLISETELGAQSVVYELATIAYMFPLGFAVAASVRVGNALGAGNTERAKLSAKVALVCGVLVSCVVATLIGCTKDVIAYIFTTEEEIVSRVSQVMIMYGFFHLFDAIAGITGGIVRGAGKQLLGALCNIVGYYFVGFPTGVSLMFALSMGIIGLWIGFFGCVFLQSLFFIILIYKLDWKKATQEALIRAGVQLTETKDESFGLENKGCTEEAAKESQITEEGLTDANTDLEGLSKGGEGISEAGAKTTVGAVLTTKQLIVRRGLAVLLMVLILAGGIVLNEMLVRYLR
Description: DAPI inhibition assay, Mate3. Type of data set: cell-based. Further details: expressed in transfected cells; host or cells: HEK293T. Particulars: for interaction with DAPI uptake (in words): Mate3, co-incubation with modulator (50 μM–2 mM), Fig. 5. How it is done: as §1, §2, §3, §4

For data set [6], the system named is CC[n+]1c(-c2ccccc2)c2cc(N)ccc2c2ccc(N)cc21. As to the kind of experiment: cells, lysate or membranes. Particulars: dye uptake, HEK293T, mean ± SD.
Description: (§5) Calibration curves for all substrates were generated in 0.1% SDS and in the cell matrix dissolved in 0.1% SDS. Resulting linear calibration curves were the same in the SDS and in the dissolved cell matrix. Using the calibration curves, uptake was expressed as pmol of substrate per mg of protein per minute. Total cell protein content was determined according to the Bradford method[33].
(§6) All assays were performed in 3–5 independent experiments run in triplicates. […] All calculations were performed using GraphPad Prism 5.00 for Windows (GraphPad Software, San Diego, California, USA) as described below. The kinetic parameters, Km and Vmax values were calculated using the Michaelis-Menten equation,
(§7) where V is velocity (picomoles of substrate per milligram of proteins per minute), Vmax is maximal velocity, [S] is substrate concentration and Km is the Michaelis Menten constant.
Substrate in data set [7]: CN(C)c1ccc(/C=C/c2cc[n+](C)cc2)cc1
As to the kind of experiment: cells, lysate or membranes. The conditions noted are these: other: Mate4; dye uptake, HEK293T; mean ± SD; NT = no transport found.
Description: as §5, §6, §7

Substrate in data set [8]: COC(=O)c1ccccc1-c1c2ccc(=N)cc-2oc2cc(N)ccc12
Description: cells, lysate or membranes. The conditions noted are these: other: Mate4; dye uptake, HEK293T; mean ± SD; NT = no transport found.
Description: as §5, §6, §7

[9] abbreviates: other: Mate4, NT = no transport found.
[10] abbreviates: Mate4, inhibition of DAPI (1 μM) uptake, n = 3, NE = no effect in the compound solubility range, read-out: IC50.
The mark [11] stands for this setting: Mate7, inhibition of DAPI (2.5 μM) uptake, n = 3, NE = no effect in the compound solubility range, read-out: IC50.
The mark [12] stands for this setting: other: Mate8, NT = no transport found.

Where a name gives a salt, the structure may show the parent alone. Read-outs that look alike come from different tables or passages of the source.

Chain of zebrafish Mate6 (A1L2E7 entry or part of it): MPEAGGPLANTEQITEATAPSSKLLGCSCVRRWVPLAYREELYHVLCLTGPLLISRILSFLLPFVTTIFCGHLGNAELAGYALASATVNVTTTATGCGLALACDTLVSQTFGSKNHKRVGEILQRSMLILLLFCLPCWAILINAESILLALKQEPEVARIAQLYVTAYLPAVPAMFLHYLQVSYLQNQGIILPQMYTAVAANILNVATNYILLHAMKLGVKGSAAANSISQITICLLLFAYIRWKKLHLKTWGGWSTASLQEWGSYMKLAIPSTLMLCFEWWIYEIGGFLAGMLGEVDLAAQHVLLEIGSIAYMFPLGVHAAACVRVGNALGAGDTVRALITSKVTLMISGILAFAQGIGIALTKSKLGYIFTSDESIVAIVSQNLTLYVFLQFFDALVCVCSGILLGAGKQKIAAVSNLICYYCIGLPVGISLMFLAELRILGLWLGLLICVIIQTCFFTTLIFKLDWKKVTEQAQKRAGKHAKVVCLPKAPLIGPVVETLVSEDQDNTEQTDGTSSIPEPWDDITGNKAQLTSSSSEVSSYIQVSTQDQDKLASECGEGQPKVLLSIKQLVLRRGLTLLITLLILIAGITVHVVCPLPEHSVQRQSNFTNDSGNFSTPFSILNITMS

Broadly, the IC50 is the point on the concentration scale where inhibition reaches its midpoint. For `C[C@]12C[C@H](O)[C@H]3[C@@H](CCC4=CC(=O)CC[C@@]43C)[C@@H]1CC[C@@H]2C(=O)CO` [Corticosterone, corticosterone], the IC50 in data set [1] was determined as 99.3 µM; in data set [2], 22.1 µM; in data set [3], 238 µM; in data set [4], 99.6 µM. Further, the interaction strength result is reported as “moderate (IC50 of 30–99 μM indicated moderate interaction)” in data set [1] (Mate6), “strong (Compounds with IC50 of 1–29 μM were designated as strong interactors)” in data set [2] (Mate8) and “weak (IC50 of 100–999 μM was classified as weak interaction)” in data set [4] (Mate7).

For the molecule `C=C[C@H]1C[N@@]2CC[C@H]1C[C@@H]2[C@@H](O)c1ccnc2ccc(OC)cc12` [Quinidine, quinidine, reference compound], the IC50 in data set [5] (read-out: IC50) came to 58.4 µM.

Regarding `C[C@]12CCC(=O)C=C1CC[C@@H]1[C@@H]2CC[C@]2(C)C(=O)CC[C@@H]12` [Androstenedione, androstenedione], the IC50 in data set [1] came out at 25.3 µM; in data set [2], 20.1 µM; in data set [3], 114 µM; in data set [4], 14.9 µM. The interaction strength entry in data set [2] (Mate8) and in data set [4] (Mate7) was “strong (Compounds with IC50 of 1–29 μM were designated as strong interactors)” each time.

The term Km denotes the substrate concentration at which the rate is half of its maximum. Take zebrafish Mate6 (Danio rerio): in data set [6] (other: Mate6), the Km amounted to 2.98 ± 0.18 µM and the Vmax worked out at 504 ± 9.79 pmol/mg protein/min.

zebrafish Mate7 (Danio rerio): in data set [6] (other: Mate7), the Km worked out at 0.79 ± 0.19 µM and the Vmax was determined as 26.3 ± 1.82 pmol/mg protein/min.

Consider `CN(C)C(=N)N=C(N)N` [metformin, reference compound], for which the “interaction with DAPI uptake (in words)” value in data set [1] (Mate6), in data set [2] (Mate8), in data set [3] (Mate4) and in data set [4] (Mate7) was “did not interact” throughout.

On to zebrafish Mate4 (Danio rerio), for which, in data set [6] (setting [9]), the Michaelis constant (Km) was 0.45 ± 0.08 µM and the Vmax is listed as 37.4 ± 2.02 pmol/mg protein/min.

Turning to `C[C@]12CC[C@H](OS(=O)(=O)O)CC1=CC[C@@H]1[C@@H]2CC[C@]2(C)C(=O)CC[C@@H]12` [DHEAS, dehydroepiandrosterone sulfate], the interaction strength result in data set [1] (Mate6) was “moderate (IC50 of 30–99 μM indicated moderate interaction)”; in data set [2] (Mate8), “strong (Compounds with IC50 of 1–29 μM were designated as strong interactors)”; in data set [4] (Mate7) it was “moderate (IC50 of 30–99 μM indicated moderate interaction)”. Further, the IC50 in data set [1] (Mate6, inhibition of DAPI (1 μM) uptake, n = 3, NE = no effect in the compound solubility range, read-out: IC50) turned out to be 39.1 µM; in data set [2] (Mate8, inhibition of DAPI (1 μM) uptake, n = 3, NE = no effect in the compound solubility range, read-out: IC50), 26.9 µM; in data set [3] (setting [10]), 313 µM; in data set [4] (setting [11]) it was 60.2 µM.

On to zebrafish Mate8 (Danio rerio), for which, in data set [6] (setting [12]), the Michaelis-Menten constant (Km) came to 0.85 ± 0.12 µM and the Vmax is reported as 17.0 ± 0.59 pmol/mg protein/min.

In the case of `C[C@H](CCC(=O)O)[C@H]1CC[C@H]2[C@@H]3CC[C@@H]4C[C@H](O)CC[C@]4(C)[C@H]3C[C@H](O)[C@]12C` [Deoxycholate, deoxycholate], the IC50 in data set [2] came out at 274 µM; in data set [4], 203 µM. For the same molecule, the interaction strength entry in data set [2] (Mate8) and in data set [4] (Mate7) was “weak (IC50 of 100–999 μM was classified as weak interaction)” throughout.

Regarding `C[n+]1ccc(-c2cc[n+](C)cc2)cc1` [Paraquat, paraquat, reference compound], the IC50 stood at 5730 µM in data set [1], 6290 µM in data set [2] and 462 µM in data set [3]. In addition, the interaction strength result in data set [2] (Mate8) is on record as “very weak (substances with IC50 above 1000 μM were considered very weak interactors)”. The “interaction with DAPI uptake (in words)” value in data set [4] (Mate7) is “too weak to determine the IC50”.

On to `CN1CC(=O)NC1=N` [creatinine], for which the “interaction with DAPI uptake (in words)” value in data set [1] (Mate6), in data set [5], in data set [2] (Mate8), in data set [3] (Mate4) and in data set [4] (Mate7) was “did not interact” throughout.

Regarding `C[C@]12CC[C@H]3[C@@H](CCC4=CC(=O)CC[C@@]43C)[C@@H]1CC[C@@H]2O` [Testosterone, testosterone], the half-inhibitory concentration (IC50) in data set [1] was 39 µM; in data set [5] it was 669 µM; in data set [2] it was 50.5 µM; in data set [3], 651 µM; in data set [4] it was 42 µM. Besides, the interaction strength result in data set [1] (Mate6), in data set [2] (Mate8) and in data set [4] (Mate7) was “moderate (IC50 of 30–99 μM indicated moderate interaction)” in each case. Also, the “interaction with DAPI uptake (in words)” value in data set [1] (Mate6), in data set [5], in data set [2] (Mate8), in data set [3] (Mate4) and in data set [4] (Mate7) was “inhibited” throughout.

Consider `CC[N+](CC)(CC)CC` [TEA, tetraethylammonium, reference compound], for which the “interaction with DAPI uptake (in words)” value in data set [5] is listed as “did not interact”; in data set [2] (Mate8), “not inhibited”. For the same molecule, the IC50 in data set [3] (setting [10]) stood at 5240 µM; in data set [4] (setting [11]) it was 3310 µM.

B1: zebrafish Mate4 (Danio rerio) (protein)
chain: MEMNSIHTEDHINGYQKEEKVEDAQLTSRSICAECLRKLRRLLPVNYKEEVMQLLKLAGPVFISQLMIFLISFVSTVFCGHLGKTELAGVALAIAVINVTGISIGSGLASACDTLISQTFGSNNLKRVGVILQRGILILLLACFPCWALLINTEPILLAVRQSPNVASLSQLYVKIFMPALPATFMYQLQGLYLQNQGIIWPQVITGAAGNILNALINYVFLYLLDLGVPGSAAANAISQYSLAVILYTYIRCMGLHKATWDGWSWDCLQEWGSFIRLALPSMLMLCAEWWTYEIGGFLAGLISEVELGAQSIVYELASVMYMFPLGFAVAAGVRVGNALGAGNTEQAKLSAKVSLVCGLLVSSVIAVVIAGTNNIIGYIFSKDEDIVLRVSQVMVMYGFVHLFDATSAITGGIVRGAGKQQIGALCNMVGYYCVGFPIGVSLMFAFNMGIVGLWIGFFTCVFLQSLFFIILIYRLDWKKATQEALIRAGVQLTEIKYESFGLENKGCTEEAAQENTEEGQTDTNTDLEGLSKGEGGITDAVALVTVGEVLTAKQLAVRRGLAFFFMLLILTGGIVLNEVLIRFVI
With B1, in data set [7], the Km is 4.49 ± 0.63 µM and the Vmax is given as 23.6 ± 1.23 pmol/mg protein/min. Further, the Km in data set [8] stood at 0.32 ± 0.03 µM.

The values above are taken from publication PMC4928094, “The first characterization of multidrug and toxin extrusion (MATE/SLC47) proteins in zebrafish (Danio rerio)” (Scientific Reports, 2016).
